Experimental data published in US20200392150A1, “Diaryl-B-Lactam Compound and Preparation Method and Pharmaceutical Use Thereof” (Fudan University, priority 2016, published 2020).
Where two headings read alike, the source gives them in different places.

Experiments:
A2780 = assay: In vitro cell growth inhibition assay (MTT); type: cell-based, human; settings: read-out: IC50 A2780
Summary of the method: (§1)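 5000 cells/well, overnight attachment; compounds 48 h (vehicle 0.2% DMSO); MTT 0.5 mg/mL, 4 h, 37° C; formazan in DMSO; A540. IC50 from growth inhibition rates.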

Hela = assay: In vitro cell growth inhibition assay (MTT); type: cell-based, human; settings: 48 h, read-out: IC50 Hela
Summary of the method: as §1

SKOV3 = assay: In vitro cell growth inhibition assay (MTT); type: cell-based, human; settings: read-out: IC50 SKOV3
Summary of the method: as §1

MDA-MB-231 = assay: In vitro cell growth inhibition assay (MTT); type: cell-based, human; settings: read-out: IC50 MDA-MB-231
Summary of the method: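 Following overnight adherence of 5000 cells per well, compounds or 0.2% DMSO were applied for 48 h. Medium was then swapped for 0.5 mg/mL MTT medium (4 h, 37° C), crystals dissolved in DMSO, and plates read at 540 nm.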

[1] = A2780 human ovarian cancer cell line, 48 h, MTT
[2] = Hela human cervical cancer cell line, MTT
[3] = SK-OV-3, SKOV-3 human ovarian cancer cell line, 48 h, MTT
[4] = MDA-MB-231 human breast cancer cell line, 48 h, MTT

Compound | melting point [°C] | IC50 (A2780; [1]) [nM] | IC50 (Hela; [2]) [nM] | IC50 (SKOV3; [3]) [nM] | IC50 (MDA-MB-231; [4]) [nM] | IC50 (A2780; Homo sapiens, A2780, 48 h) [nM] | IC50 (Hela; Homo sapiens, HeLa) [nM] | IC50 (SKOV3; Homo sapiens, SK-OV-3, 48 h) [nM] | IC50 (MDA-MB-231; Homo sapiens, MDA-MB-231, 48 h) [nM]
C=C1C(=O)N(c2cc(OC)c(OC)c(OC)c2)[C@H]1c1ccc(OC)c(OC)c1 [Compound 2, (S)-4-(3,4-dimethoxyphenyl)-3-methylene-1-(3,4,5-trimethoxyphenyl)azetidin-2-one] | 138 to 139 | 854 | 3160 | 2260 | 1020 | – | – | – | –
C=C1C(=O)N(c2cc(OC)c(OC)c(OC)c2)[C@H]1c1ccc(OC)c(OC(=O)c2ccc(F)cc2)c1 [Compound 20, (S)-2-methoxy-5-(3-methylene-4-oxo-1-(3,4,5-trimethoxyphenyl)azetidin-2-yl)phenyl 4-fluorobenzoate] | 185 to 186 | – | – | – | – | 169 | 75 | 114 | 223
C=C1C(=O)N(c2cc(OC)c(OC)c(OC)c2)[C@H]1c1ccc(OC)c(OC(=O)CNC(=O)OC(C)(C)C)c1 [Compound 34, (S)-2-methoxy-5-(3-methylene-4-oxo-1-(3,4,5-trimethoxyphenyl)azetidin-2-yl)phenyl 2-((tert-butoxycarbonyl)amino)acetate] | 88 to 89 | 240 | 62 | 264 | 335 | – | – | – | –
C=C1C(=O)N(c2cc(OC)c(OC)c(OC)c2)[C@H]1c1ccc(OC)c(C(=O)OC)c1 [Compound 40, (5)-methyl 2-methoxy-5-(3-methylene-4-oxo-1-(3,4,5-trimethoxyphenyl)azetidin-2-yl)benzoate] | 112 to 113 | 281 | 942 | 539 | 479 | – | – | – | –
C=C1C(=O)N(c2cc(OC)c(OC)c(OC)c2)[C@H]1c1ccc(OC)c(OC(=O)N2CCOCC2)c1 [Compound 25, (S)-2-methoxy-5-(3-methylene-4-oxo-1-(3,4,5-trimethoxyphenyl)azetidin-2-yl)phenyl morpholine-4-carboxylate] | 82 to 83 | > 10000 | > 10000 | > 10000 | > 10000 | – | – | – | –
C=C1C(=O)N(c2cc(OC)c(OC)c(OC)c2)[C@H]1c1ccc(OC)c(OCCCCl)c1 [Compound 11, (S)-4-(3-(3-chloropropoxy)-4-methoxyphenyl)-3-methylene-1-(3,4,5-trimethoxyphenyl)azetidin-2-one] | 72 to 73 | 2180 | 6040 | 4070 | 4150 | – | – | – | –
C=C1C(=O)N(c2cc(OC)c(OC)c(OC)c2)[C@H]1c1ccc(OC)c(OC(C)=O)c1 [Compound 46, (S)-2-methoxy-5-(3-methylene-4-oxo-1-(3,4,5-trimethoxyphenyl)azetidin-2-yl)phenyl acetate] | 122 to 123 | 81 | 116 | 104 | 133 | – | – | – | –
C=C1C(=O)N(c2cccc(OC)c2)[C@H]1c1ccc(OC)c(O)c1 [Compound 51, (S)-1-(3-methoxyphenyl)-4-(3-hydroxy-4-methoxyphenyl)-3-methyleneazetidin-2-one] | 104 to 105 | 677 | 2170 | 1390 | 1370 | – | – | – | –
C=C1C(=O)N(c2cc(OC)c(OC)c(OC)c2)[C@H]1c1ccc(OC)c(OC(C)C)c1 [Compound 5, (S)-4-(3-isopropoxy-4-methoxyphenyl)-3-methylene-1-(3,4,5-trimethoxyphenyl)azetidin-2-one] | 146 to 147 | 11300 | > 20000 | 18000 | 15900 | – | – | – | –
C=C1C(=O)N(c2cc(OC)c(OC)c(OC)c2)[C@H]1c1ccc(OC)c(NC(=O)c2ccc([N+](=O)[O-])cc2)c1 [Compound 43, (S)—N-(2-methoxy-5-(3-methylene-4-oxo-1-(3,4,5-trimethoxyphenyl)azetidin-2-yl)phenyl)-4-nitrobenzamide] | 234 to 235 | 931 | 1580 | 1420 | 2000 | – | – | – | –
C=C1C(=O)N(c2cc(OC)c(OC)c(OC)c2)[C@H]1c1ccc(OC)c(Cl)c1 [Compound 39, (S)-4-(3-chloro-4-methoxyphenyl)-3-methylene-1-(3,4,5-trimethoxyphenyl)azetidin-2-one] | 119 to 120 | 316 | 371 | 341 | 512 | – | – | – | –
C=CC(=O)Nc1cc([C@H]2C(=C)C(=O)N2c2cc(OC)c(OC)c(OC)c2)ccc1OC [Compound 42, (S)—N-(2-methoxy-5-(3-methylene-4-oxo-1-(3,4,5-trimethoxyphenyl)azetidin-2-yl)phenyl)acrylamide] | 143 to 144 | 65 | 125 | 63 | 34 | – | – | – | –
C=C1C(=O)N(c2cc(OC)c(OC)c(OC)c2)[C@H]1c1ccc(OC)c(NC(=O)C2CC2)c1 [Compound 45, (S)—N-(2-methoxy-5-(3-methylene-4-oxo-1-(3,4,5-trimethoxyphenyl)azetidin-2-yl)phenyl)cyclopropanecarboxamide] | 181 to 182 | 148 | 321 | 224 | 197 | – | – | – | –
C=C1C(=O)N(c2cc(OC)c(OC)c(OC)c2)[C@H]1c1ccc(OC)c(OCCCl)c1 [Compound 10, (S)-4-(3-(2-chloroethoxy)-4-methoxyphenyl)-3-methylene-1-(3,4,5-trimethoxyphenyl)azetidin-2-one] | 91 to 92 | 409 | 887 | 864 | 608 | – | – | – | –
C#CCOc1cc([C@H]2C(=C)C(=O)N2c2cc(OC)c(OC)c(OC)c2)ccc1OC [Compound 7, (S)-4-(4-methoxy-3-(prop-2-yn-1-yloxy)phenyl)-3-methylene-1-(3,4,5-trimethoxyphenyl)azetidin-2-one] | 106 to 107 | 429 | 1050 | 841 | 1200 | – | – | – | –
C=C1C(=O)N(c2cc(OC)c(OC)c(OC)c2)[C@H]1c1ccc(OC)c(OC(=O)c2ccc([N+](=O)[O-])cc2)c1 [Compound 19, (S)-2-methoxy-5-(3-methylene-4-oxo-1-(3,4,5-trimethoxyphenyl)azetidin-2-yl)phenyl 4-nitrobenzoate] | 88 to 89 | 55 | 102 | 84 | 105 | – | – | – | –
C=CCOc1cc([C@H]2C(=C)C(=O)N2c2cc(OC)c(OC)c(OC)c2)ccc1OC [Compound 6, (S)-4-(3-(allyloxy)-4-methoxyphenyl)-3-methylene-1-(3,4,5-trimethoxyphenyl)azetidin-2-one] | 92 to 93 | 1250 | 1150 | 1480 | 883 | – | – | – | –
C=CC(=O)Oc1cc([C@H]2C(=C)C(=O)N2c2cc(OC)c(OC)c(OC)c2)ccc1OC [Compound 24, (S)-2-methoxy-5-(3-methylene-4-oxo-1-(3,4,5-trimethoxyphenyl)azetidin-2-yl)phenyl acrylate] | 109 to 110 | 328 | 490 | 522 | 565 | – | – | – | –
